This assay has as its target T1, human mAChR M4 (Homo sapiens, UniProt P08173).
T1 construct: expressed in transfected cells; host or cells: CHO-K1 (ATCC), stably co-expressing chimeric G protein Gqi5
T1 sequence (P08173 1-479): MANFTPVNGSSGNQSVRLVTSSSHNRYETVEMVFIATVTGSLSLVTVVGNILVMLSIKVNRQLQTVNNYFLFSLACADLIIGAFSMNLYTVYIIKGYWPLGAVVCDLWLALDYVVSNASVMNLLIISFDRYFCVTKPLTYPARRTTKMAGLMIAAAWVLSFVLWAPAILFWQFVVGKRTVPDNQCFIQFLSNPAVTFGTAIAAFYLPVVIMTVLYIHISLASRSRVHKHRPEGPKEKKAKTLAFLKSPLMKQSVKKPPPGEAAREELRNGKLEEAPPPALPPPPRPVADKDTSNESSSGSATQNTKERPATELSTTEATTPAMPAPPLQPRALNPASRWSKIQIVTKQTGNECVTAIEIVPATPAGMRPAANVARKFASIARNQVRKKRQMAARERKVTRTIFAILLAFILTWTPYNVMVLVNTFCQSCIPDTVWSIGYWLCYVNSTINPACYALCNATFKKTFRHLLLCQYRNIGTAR
The assay is described as follows: mAChR M4 cell-based functional assay (calcium mobilization, EC80 acetylcholine), human M4. The following applies: for Emin: human M4, % ACh maximum at 30 μM. The method, boiled down:
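CHO-K1 cells stably expressing human M4 with chimeric Gqi5; intracellular calcium rise read on FDSS as fluorescence static ratio at 1 Hz. Compounds in 10-point 1:3 dilution series; IC50 taken as concentration-dependent decrease of the EC80 acetylcholine response, four-parameter logistic fit.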
For orientation: Calcium assays in cells follow changes in intracellular calcium, usually with a dye or a luminescent sensor.

The mark [1] stands for this setting: Table 10, M4/Gqi5/CHO-K1 cells, decrease of EC80 acetylcholine response.
Where [2] appears, read: Table 9, M4/Gqi5/CHO-K1 cells, decrease of EC80 acetylcholine response.

For `Fc1ccc(Cl)c(-c2ccc(N[C@H]3C[C@@H]4CN(Cc5ccccn5)C[C@@H]4C3)nn2)c1` [Compound 160, (3aR,5s,6aS)-N-[6-(2-chloro-5-fluoro-phenyl)pyridazin-3-yl]-2-(2-pyridylmethyl)-3,3a,4,5,6,6a-hexahydro-1H-cyclopenta[c]pyrrol-5-amine], the “Human M4 Emin” value (Table 10) is given as 3%. Moreover, the IC50 (in general, the concentration needed to halve the response being measured) under setting [1] was found to be 0.00403 µM.
The corresponding values for `CC(=O)Nc1ccccc1-c1ccc(N[C@H]2C[C@@H]3CN(CC4CCOCC4)C[C@@H]3C2)nn1` [Compound 206, N-[2-[6-[[(3aR,5s,6aS)-2-(tetrahydropyran-4-ylmethyl)-3,3a,4,5,6,6a-hexahydro-1H-cyclopenta[c]pyrrol-5-yl]amino]pyridazin-3-yl]phenyl]acetamide] are 38% and 0.0574 µM.
The corresponding values for `Cc1cnn(C)c1-c1ccc(NC(=O)[C@H]2C[C@@H]3CN(CCC(C)(C)C)C[C@@H]3C2)nn1` [Compound 145, (3aR,5s,6aS)-2-(3,3-dimethylbutyl)-N-[6-(2,4-dimethylpyrazol-3-yl)pyridazin-3-yl]-3,3a,4,5,6,6a-hexahydro-1H-cyclopenta[c]pyrrole-5-carboxamide] are 4% and 0.239 µM.
As to `c1ccc(-c2cnc(N[C@H]3C[C@@H]4CN(CC5CCOCC5)C[C@@H]4C3)s2)cc1` [Compound 230, N-[(3aR,5s,6aS)-2-(tetrahydropyran-4-ylmethyl)-3,3a,4,5,6,6a-hexahydro-1H-cyclopenta[c]pyrrol-5-yl]-5-phenyl-thiazol-2-amine], the “Human M4 Emin” value (Table 10) stood at 41%. Besides, the IC50 (Table 10, μM) is more than 10 µM.
As for `Fc1ccc(Cl)c(-c2ccc(N[C@H]3C[C@@H]4CN(CC5CCCOC5)C[C@@H]4C3)nn2)c1` (stereo partly drawn) [Compound 33, (3aR,5s,6aS)-N-[6-(2-chloro-5-fluoro-phenyl)pyridazin-3-yl]-2-(tetrahydropyran-3-ylmethyl)-3,3a,4,5,6,6a-hexahydro-1H-cyclopenta[c]pyrrol-5-amine], the IC50 under setting [2] turned out to be 0.0012 µM. Besides, under “Table 9”, the Emin came out at 6.3%.
The corresponding values for `Cc1cnn(C)c1-c1ccc(NC(=O)C2C[C@@H]3CN(CCC(C)(C)C)C[C@@H]3C2)nn1` (stereo partly drawn) [Compound 74, (3aR,6aS)-2-(3,3-Dimethylbutyl)-N-[6-(2,4-dimethylpyrazol-3-yl)pyridazin-3-yl]-3,3a,4,5,6,6a-hexahydro-1H-cyclopenta[c]pyrrole-5-carboxamide] are 0.263 µM and 3.37%.
The corresponding values for `Cc1cnn(C)c1-c1ccc(OCC2C[C@@H]3CN(Cc4ccccc4F)C[C@@H]3C2)nn1` (stereo partly drawn) [Compound 87, (3aR,6aS)-5-[[6-(2,4-dimethylpyrazol-3-yl)pyridazin-3-yl]oxymethyl]-2-[(2-fluorophenyl)methyl]-3,3a,4,5,6,6a-hexahydro-1H-cyclopenta[c]pyrrole] are 4.01 µM and 7.39%.
Take `Cc1cnn(C)c1-c1ccc(OC[C@@H]2C[C@@H]3CN(CCC(C)(C)C)C[C@@H]3C2)nn1` [Compound 147, (3aR,5r,6aS)-2-(3,3-dimethylbutyl)-5-[[6-(2,4-dimethylpyrazol-3-yl)pyridazin-3-yl]oxymethyl]-3,3a,4,5,6,6a-hexahydro-1H-cyclopenta[c]pyrrole]: the “Human M4 Emin” value (Table 10) is 4%. The IC50 under setting [1] worked out at 0.0424 µM.
The matching figures for `Cc1nn(C)cc1-c1ccc(N[C@H]2C[C@@H]3CN(CC4CC5C=CC4C5)C[C@@H]3C2)nc1` (stereo partly drawn) [Compound 151, (3aR,5s,6aS)-2-(5-bicyclo[2.2.1]hept-2-enylmethyl)-N-[5-(1,3-dimethylpyrazol-4-yl)-2-pyridyl]-3,3a,4,5,6,6a-hexahydro-1H-cyclopenta[c]pyrrol-5-amine]: 3% and 0.0773 µM.
`Cc1cnn(C)c1-c1ccc(NCCC2C[C@@H]3CN(CC4CCOCC4)C[C@@H]3C2)nn1` (stereo partly drawn) [Compound 125, N-[2-[(3aR,6aS)-2-(tetrahydropyran-4-ylmethyl)-3,3a,4,5,6,6a-hexahydro-1H-cyclopenta[c]pyrrol-5-yl]ethyl]-6-(2,4-dimethylpyrazol-3-yl)pyridazin-3-amine]: the IC50 under setting [2] was 0.0287 µM. In addition, the Emin (Table 9) is 4.41%.
As for `COc1ccc(-c2ccc(N[C@H]3C[C@@H]4CN(CC5CCOCC5)C[C@@H]4C3)nn2)cn1` [Compound 224, (3aR,5s,6aS)-N-[6-(6-methoxy-3-pyridyl)pyridazin-3-yl]-2-(tetrahydropyran-4-ylmethyl)-3,3a,4,5,6,6a-hexahydro-1H-cyclopenta[c]pyrrol-5-amine], the “Human M4 Emin” value (Table 10) amounted to 4%. For the same compound, under setting [1], the IC50 stood at 0.00693 µM.
The matching figures for `Fc1ccc(Cl)c(-c2ccc(N[C@@H]3C[C@@H]4CN(CC5CCOCC5)C[C@@H]4C3)nn2)c1` [Compound 159, (3aR,5r,6aS)-N-[6-(2-chloro-5-fluoro-phenyl)pyridazin-3-yl]-2-(tetrahydropyran-4-ylmethyl)-3,3a,4,5,6,6a-hexahydro-1H-cyclopenta[c]pyrrol-5-amine]: 4% and 0.0841 µM.
As for `Cc1nn(C)cc1-c1ccc(OCC2C[C@@H]3CN(CC45CC6CC(CC(C6)C4)C5)C[C@@H]3C2)nn1` (stereo partly drawn) [Compound 93, (3aR,6aS)-2-(1-adamantylmethyl)-5-[[6-(1,3-dimethylpyrazol-4-yl)pyridazin-3-yl]oxymethyl]-3,3a,4,5,6,6a-hexahydro-1H-cyclopenta[c]pyrrole], the IC50 under setting [2] was found to be 0.0821 µM. For the same compound, the Emin (Table 9) turned out to be 4.05%.
The corresponding values for `CCCC(C)CN1C[C@H]2CC(COc3ccc(-c4cn(C)nc4C)nn3)C[C@H]2C1` (stereo partly drawn) [Compound 96, (3aR,6aS)-5-[[6-(1,3-dimethylpyrazol-4-yl)pyridazin-3-yl]oxymethyl]-2-(2-methylpentyl)-3,3a,4,5,6,6a-hexahydro-1H-cyclopenta[c]pyrrole] are 0.301 µM and 4.62%.
As to `Cc1nn(C)cc1-c1ccc(N[C@@H]2C[C@@H]3CN(CC4CCCCC4)C[C@@H]3C2)c(F)c1F` [Compound 43, (3aR,5r,6aS)-2-(cyclohexylmethyl)-N-[4-(1,3-dimethylpyrazol-4-yl)-2,3-difluoro-phenyl]-3,3a,4,5,6,6a-hexahydro-1H-cyclopenta[c]pyrrol-5-amine], the IC50 under setting [2] turned out to be 1.21 µM. In addition, the Emin (Table 9) is 5.25%.
On to `Fc1ccc(Cl)c(-c2ccc(N[C@H]3C[C@@H]4CN(Cc5ccoc5)C[C@@H]4C3)nn2)c1` [Compound 178, (3aR,5s,6aS)-N-[6-(2-chloro-5-fluoro-phenyl)pyridazin-3-yl]-2-(3-furylmethyl)-3,3a,4,5,6,6a-hexahydro-1H-cyclopenta[c]pyrrol-5-amine], for which, where the note is “Table 10”, the “Human M4 Emin” value came to 3%. For the same compound, the IC50 under setting [1] is 0.0451 µM.
As to `Cc1cccnc1CN1C[C@H]2C[C@@H](Oc3ccc(-c4cc(F)ccc4Cl)nn3)C[C@H]2C1` [Compound 58, (3aR,5r,6aS)-5-[6-(2-chloro-5-fluoro-phenyl)pyridazin-3-yl]oxy-2-[(3-methyl-2-pyridyl)methyl]-3,3a,4,5,6,6a-hexahydro-1H-cyclopenta[c]pyrrole], the IC50 under setting [2] was determined as 1.46 µM. The Emin (Table 9) is on record as 6.11%.
As to `c1coc(-c2ccc(N[C@H]3C[C@@H]4CN(CC5CCOCC5)C[C@@H]4C3)nn2)c1` [Compound 188, (3aR,5s,6aS)-N-[6-(2-furyl)pyridazin-3-yl]-2-(tetrahydropyran-4-ylmethyl)-3,3a,4,5,6,6a-hexahydro-1H-cyclopenta[c]pyrrol-5-amine], the “Human M4 Emin” value (Table 10) is given as 14%. The IC50 under setting [1] is 0.00794 µM.
`CC1(CN2C[C@H]3C[C@H](Nc4ccc(-c5cc(F)ccc5Cl)nn4)C[C@H]3C2)COC1` [Compound 171, (3aR,5s,6aS)-N-[6-(2-chloro-5-fluoro-phenyl)pyridazin-3-yl]-2-[(3-methyloxetan-3-yl)methyl]-3,3a,4,5,6,6a-hexahydro-1H-cyclopenta[c]pyrrol-5-amine]: under “Table 10”, the “Human M4 Emin” value came to 4%. Further, the IC50 under setting [1] is 0.0843 µM.
For `CCCC(C)CN1C[C@H]2C[C@H](Nc3ccc(-c4c(C)cnn4C)nn3)C[C@H]2C1` (stereo partly drawn) [Compound 19, (3aR,5s,6aS)-N-[6-(2,4-dimethylpyrazol-3-yl)pyridazin-3-yl]-2-(2-methylpentyl)-3,3a,4,5,6,6a-hexahydro-1H-cyclopenta[c]pyrrol-5-amine], the IC50 under setting [2] came to 0.01 µM. In addition, the Emin (Table 9) was 3.11%.
The corresponding values for `Fc1ccc(Cl)c(-c2ccc(OCC3C[C@@H]4CN(CC56CC7CC(CC(C7)C5)C6)C[C@@H]4C3)nn2)c1` (stereo partly drawn) [Compound 107, (3aR,6aS)-2-(1-adamantylmethyl)-5-[[6-(2-chloro-5-fluoro-phenyl)pyridazin-3-yl]oxymethyl]-3,3a,4,5,6,6a-hexahydro-1H-cyclopenta[c]pyrrole] are 1.09 µM and 5.03%.

Source of the values: patent publication US12577234B2, “Antagonists of the muscarinic acetylcholine receptor M4” (Vanderbilt University, priority 2017, dated 2026).
